ChEMBL document CHEMBL1201862, “PubChem BioAssay data set” (2004)
Calls of active or inactive are those of the source.

How the values were obtained:
[1] = system: H9c2; test: cells; type: functional, cell-based; settings: Rattus norvegicus, H9c2, Myocardium;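 further: confirmatory concentration-response retest of ultra-high-throughput screening hits for modulation of myocardial damage; cell death induced by hydrogen peroxide oxidative stress; compound pretreatment for 60 min then peroxide exposure for 2 h; potency is for protecting the cells against peroxide damage rather than for killing them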
[2] = target: T1, Short transient receptor potential channel 4 (Mus musculus, UniProt Q9QUQ5); test: mouse TRPC4 channel activators, dose response, cell-based, HEK293 TRPC4/mu-opioid, Fluo-4 calcium (AID 434937); type: functional
T1 sequence (Q9QUQ5 whole entry): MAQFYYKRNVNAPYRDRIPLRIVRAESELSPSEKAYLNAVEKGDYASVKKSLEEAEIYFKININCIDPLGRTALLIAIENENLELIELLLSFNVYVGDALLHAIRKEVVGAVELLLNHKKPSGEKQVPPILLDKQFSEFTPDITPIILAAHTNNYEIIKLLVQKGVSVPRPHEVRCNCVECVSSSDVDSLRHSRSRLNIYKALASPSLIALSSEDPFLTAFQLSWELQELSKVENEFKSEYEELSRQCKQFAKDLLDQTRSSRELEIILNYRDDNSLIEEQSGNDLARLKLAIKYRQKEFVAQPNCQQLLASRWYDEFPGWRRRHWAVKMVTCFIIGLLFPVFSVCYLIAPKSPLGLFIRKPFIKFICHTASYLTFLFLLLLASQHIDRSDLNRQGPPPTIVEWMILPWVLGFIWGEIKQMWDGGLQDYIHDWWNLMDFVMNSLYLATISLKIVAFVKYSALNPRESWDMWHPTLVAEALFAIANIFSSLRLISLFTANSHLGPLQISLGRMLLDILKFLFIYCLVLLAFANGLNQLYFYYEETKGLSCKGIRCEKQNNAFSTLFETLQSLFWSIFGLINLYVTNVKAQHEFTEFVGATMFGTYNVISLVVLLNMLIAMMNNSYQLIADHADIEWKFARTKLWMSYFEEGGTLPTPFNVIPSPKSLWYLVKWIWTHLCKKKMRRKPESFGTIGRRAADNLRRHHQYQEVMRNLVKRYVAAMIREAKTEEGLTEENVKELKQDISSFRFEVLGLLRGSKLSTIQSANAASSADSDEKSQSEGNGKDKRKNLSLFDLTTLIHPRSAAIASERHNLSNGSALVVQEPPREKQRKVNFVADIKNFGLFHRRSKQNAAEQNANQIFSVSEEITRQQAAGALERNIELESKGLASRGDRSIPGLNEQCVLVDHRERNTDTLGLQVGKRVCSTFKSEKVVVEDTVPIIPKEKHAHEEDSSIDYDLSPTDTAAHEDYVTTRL

[3] = target: T2, Protein skinhead-1 (Caenorhabditis elegans, UniProt P34707); type: functional
T2 sequence (P34707 whole entry): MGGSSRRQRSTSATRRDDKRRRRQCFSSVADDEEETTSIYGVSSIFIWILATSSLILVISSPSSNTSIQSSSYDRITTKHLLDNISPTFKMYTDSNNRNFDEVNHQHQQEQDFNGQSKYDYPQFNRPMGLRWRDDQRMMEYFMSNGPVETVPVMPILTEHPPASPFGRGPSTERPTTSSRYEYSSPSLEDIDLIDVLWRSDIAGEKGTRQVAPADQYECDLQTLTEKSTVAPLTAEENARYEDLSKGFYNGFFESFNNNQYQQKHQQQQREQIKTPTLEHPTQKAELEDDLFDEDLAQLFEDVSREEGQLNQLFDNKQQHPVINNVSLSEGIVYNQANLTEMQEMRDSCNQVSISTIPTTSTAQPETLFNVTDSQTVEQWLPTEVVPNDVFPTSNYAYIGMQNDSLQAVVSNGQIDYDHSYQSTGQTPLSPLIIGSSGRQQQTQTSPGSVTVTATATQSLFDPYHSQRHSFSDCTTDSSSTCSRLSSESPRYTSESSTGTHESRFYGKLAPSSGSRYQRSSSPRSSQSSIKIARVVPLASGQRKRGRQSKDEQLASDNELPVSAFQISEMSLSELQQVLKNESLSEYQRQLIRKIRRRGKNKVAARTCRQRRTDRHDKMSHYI

[4] = system: P388/ADR; test: cells; type: functional; settings: Mus musculus
[5] = system: SN12K1; test: cells; type: functional; settings: Homo sapiens, SN12K1
[6] = system: P388; test: cells; type: functional; settings: Mus musculus, P388
[7] = Luminescence Cell-Based Dose Confirmation HTS to Identify Activators of 5'UTR Stem-Loop Driven Alpha-Synuclein mRNA Translation in H4 Neuroglioblastoma Cells. [Related pubchem assays: 1829 (Project Summary), 1814 (Primary HTS)]; type: functional
[8] = Luminescence Cell-Based Dose Response HTS to Identify Activators of Luciferase Translation or Activity in H4 […] Cells. [Related pubchem assays: 1829 (Project Summary), 1814 (Primary HTS)]; type: functional
[9] = system: H4; test: Luminescence Cell-Based Dose Response HTS to Identify Activators of 5'UTR Stem-Loop Driven Prion Protein mRNA Translation in H4 Neuroglioblastoma Cells. [Related pubchem assays: 1829 (Project Summary), 1814 (Primary HTS)]; type: functional; settings: Homo sapiens
[10] = target: Glyceraldehyde-3-phosphate dehydrogenase (Homo sapiens, UniProt P04406)
Glyceraldehyde-3-phosphate dehydrogenase, sequence (P04406 whole entry): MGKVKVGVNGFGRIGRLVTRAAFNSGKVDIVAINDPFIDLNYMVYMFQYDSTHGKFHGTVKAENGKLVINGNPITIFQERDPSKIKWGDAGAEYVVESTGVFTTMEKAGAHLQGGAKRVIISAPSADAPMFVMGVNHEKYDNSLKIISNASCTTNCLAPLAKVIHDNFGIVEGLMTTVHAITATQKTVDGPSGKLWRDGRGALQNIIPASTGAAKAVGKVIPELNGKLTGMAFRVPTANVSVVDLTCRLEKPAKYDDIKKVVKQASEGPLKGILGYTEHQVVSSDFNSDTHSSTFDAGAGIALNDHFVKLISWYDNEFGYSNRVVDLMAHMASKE

[11] = inhibitors of firefly luciferase expression or activity, dose response, H4 neuroglioma cells, luminescence (AID 1990); type: functional, cell-based
[12] = Luminescence Cell-Based Dose Response HTS to Identify Inhibitors of 5'UTR Stem-Loop Driven Prion Protein mRNA Translation in H4 Neuroglioblastoma Cells. [Related pubchem assays: 1827 (Project Summary), 1813 (Primary HTS)]; type: functional
[13] = target: T3, Heat shock factor protein 1 (Mus musculus, UniProt P38532); test: inhibition of MG132-induced HSE-luciferase signal, confirmation, cell-based, NIH3T3, luminescence, dose retest (AID 2382); type: functional;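 further: NIH3T3 fibroblasts with HSF1-driven luciferase reporter stressed by proteasome inhibitor MG132; luminescence from HSF1-driven luciferase expression after 8 hours of MG132 stress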
T3 sequence (P38532 whole entry): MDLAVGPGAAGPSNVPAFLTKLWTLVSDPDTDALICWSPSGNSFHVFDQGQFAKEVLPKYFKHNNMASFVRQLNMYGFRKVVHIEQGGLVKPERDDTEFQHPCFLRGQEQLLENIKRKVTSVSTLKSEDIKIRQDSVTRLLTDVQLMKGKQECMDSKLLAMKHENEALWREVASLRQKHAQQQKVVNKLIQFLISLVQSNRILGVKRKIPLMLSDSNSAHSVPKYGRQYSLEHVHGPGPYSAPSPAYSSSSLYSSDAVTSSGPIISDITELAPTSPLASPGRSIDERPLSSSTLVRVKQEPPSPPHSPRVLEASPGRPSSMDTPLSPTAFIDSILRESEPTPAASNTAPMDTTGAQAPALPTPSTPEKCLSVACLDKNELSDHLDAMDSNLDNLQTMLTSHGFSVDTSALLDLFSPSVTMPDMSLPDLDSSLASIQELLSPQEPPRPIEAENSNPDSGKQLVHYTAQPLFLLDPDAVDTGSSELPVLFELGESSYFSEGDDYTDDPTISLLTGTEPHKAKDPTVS

[14] = inhibitors of SNCA 5'UTR-driven reporter translation, confirmation, H4 neuroglioma cells, luminescence (AID 1988); type: functional, cell-based
[15] = A549 cell cytotoxicity, dose response, cytotoxicity control, plate reader, cherry-pick, antagonist series (AID 743412); type: functional, cell-based
[16] = LGR2 antagonists, dose response, cell-based, HEK293, CRE-luciferase reporter, cherry pick, set 2 (AID 743343); type: functional;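 further: transfected cells were stimulated with diluted bursicon conditioned medium after compound addition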
[17] = MC4R antagonists, dose response, counter-screen for LGR2 antagonist project, cell-based, plate reader, cherry pick (AID 743444); type: functional;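 further: transfected HEK 293 cells stimulated with alpha-MSH peptide; potency of inhibitors of the alpha-MSH evoked signal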
[18] = target: Luciferin 4-monooxygenase (Photinus pyralis, UniProt P08659); test: firefly luciferase enzyme inhibitors, dose response, biochemical, luminescence (AID 1891)
Luciferin 4-monooxygenase, sequence (P08659 whole entry): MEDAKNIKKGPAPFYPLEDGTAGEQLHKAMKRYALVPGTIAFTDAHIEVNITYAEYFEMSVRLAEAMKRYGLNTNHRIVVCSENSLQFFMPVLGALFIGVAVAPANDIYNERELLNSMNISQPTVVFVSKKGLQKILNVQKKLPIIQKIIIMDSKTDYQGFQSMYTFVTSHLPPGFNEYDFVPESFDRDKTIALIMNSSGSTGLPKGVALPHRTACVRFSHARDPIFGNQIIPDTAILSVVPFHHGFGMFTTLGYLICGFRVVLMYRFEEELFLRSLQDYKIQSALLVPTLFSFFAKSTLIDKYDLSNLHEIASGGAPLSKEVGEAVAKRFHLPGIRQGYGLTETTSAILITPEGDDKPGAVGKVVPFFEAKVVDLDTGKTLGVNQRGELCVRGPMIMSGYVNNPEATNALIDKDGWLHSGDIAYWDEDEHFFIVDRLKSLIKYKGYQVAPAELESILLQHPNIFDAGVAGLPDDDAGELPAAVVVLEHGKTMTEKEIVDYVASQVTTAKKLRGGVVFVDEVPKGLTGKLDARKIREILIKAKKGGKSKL

[19] = Luminescence Cell-Based Dose Confirmation HTS to Identify Inhibitors of Platelet Dense Granule Release. [Related pubchem assays: 1663 (Primary HTS), 1678 (Summary of Project)]; type: functional
[20] = target: T4, Ubiquitin-conjugating enzyme E2 N (Homo sapiens, UniProt P61088); type: functional;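 further: Dose-response confirmation in a TR-FRET assay detecting UBC13-driven polyubiquitin chain formation, inhibition measured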
T4 sequence (P61088 whole entry): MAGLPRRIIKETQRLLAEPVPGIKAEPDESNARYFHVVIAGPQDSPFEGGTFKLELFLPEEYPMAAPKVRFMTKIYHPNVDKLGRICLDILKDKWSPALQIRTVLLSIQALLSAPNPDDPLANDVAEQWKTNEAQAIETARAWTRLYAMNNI

SMILES: c1cc2[nH]c(C3CC3)nc2c2nsnc12
- IC50 [1]: > 79 µM (inactive)

SMILES: CCc1ccc(C(C)NC(=O)c2cc(C)oc2C)cc1 (stereo not drawn)
- IC50 [1]: > 79 µM (inactive)

SMILES: O=C(N/N=C/c1ccco1)C1COc2ccccc2O1 (stereo not drawn)
- EC50 [2]: 4.22 µM (active)

SMILES: COc1ccccc1CN(C)C(=O)c1cc(-c2cc(OC)c(OC)c(OC)c2)nc2ccccc12
- IC50 [1]: 29.1 µM (active)

SMILES: Clc1ccc(Cc2noc(-c3cccs3)n2)cc1
- IC50 [3]: 4.34 µM (active)

SMILES: CN(C)CC(CC1=C(CC(CN(C)C)N(C)C)CCC1)N(C)C (stereo not drawn)
- GI50 [4]: > 100 µM (inactive)
- GI50 [5]: > 100 µM (inactive)
- GI50 [6]: > 100 µM (inactive)

SMILES: N=C(Nc1ccccc1)Nc1ccccc1
- EC50 [2]: 10.6 µM (active)

SMILES: O=C(NCCc1ccccc1Cl)c1ccc2nc3ccccc3c(=O)n2c1
- EC50 [7]: 10.2 µM (active)
- EC50 [8]: > 120 µM (not active)
- EC50 [9]: > 120 µM (not active)
- IC50 [1]: > 79 µM (inactive)

SMILES: Cc1cc(C(=O)CSc2nnc(C3COc4ccccc4O3)n2C)c(C)n1-c1ccc(F)cc1 (stereo not drawn)
- IC50 [3]: > 100 µM (inactive)

SMILES: C=C1C(=O)OCC2C(C(=O)O)=CC3C(C)C(C)=CC123 (stereo not drawn)
- GI50 [4]: 5.77 µM (inactive)
- GI50 [5]: 9.08 µM (inactive)
- GI50 [6]: 5.21 µM (inactive)

SMILES: CN(C)C(=O)/C=C/c1c[nH]c(=O)[nH]c1=O
- GI50 [4]: > 281 µM (inactive)
- GI50 [5]: > 500 µM (inactive)
- GI50 [6]: > 281 µM (inactive)

SMILES: CC1OC(O[C@@H]2C=C3CC[C@@H]4[C@H](CC[C@]5(C)[C@@H](c6ccc(=O)oc6)CC[C@]45O)[C@@]3(C)CC2)C(O)C(O)C1O (stereo partly drawn)
- GI50 [4]: 47.1 µM (inactive)
- GI50 [6]: 20.7 µM (inactive)

SMILES: CCc1nnc(NC(=O)CSc2nnc(CNc3ccc(OC)cc3)n2C)s1
- IC50 [1]: 28.3 µM (active)

SMILES: Fc1ccc(-c2csc(N3CCSCC3)n2)cc1
- IC50 [3]: > 100 µM (inactive)

SMILES: Cc1cc(C)c(NS(=O)(=O)c2ccc(O)c(C(=O)O)c2)c(C)c1
- IC50 [10]: > 100 µM (not active)

SMILES: Cc1ccc(CN(C(=O)CNC(=O)c2cccs2)C(C(=O)NCC2CCCO2)c2ccccc2)cc1 (stereo not drawn)
- IC50 [1]: > 79 µM (inactive)

SMILES: COc1ccc(CN(C(=O)c2oc3ccccc3c2C)C2CCS(=O)(=O)C2)cc1 (stereo not drawn)
- IC50 [3]: > 100 µM (inactive)

SMILES: CN1CCN(c2ccc(NC(=O)N3CCc4ccccc43)cc2)CC1
- EC50 [11]: 6.81 µM (inconclusive)
- EC50 [12]: 9.49 µM (active)
- EC50 [13]: < 0.16 µM (active)
- EC50 [14]: > 120 µM (not active)
- AC50 [15]: > 52 µM (inactive)
- AC50 [16]: 2.2 µM (active)
- AC50 [17]: 4.38 µM (active)

SMILES: Clc1ccccc1-c1nc(N/N=C/c2cccnc2)c2ccccc2n1
- EC50 [18]: > 112 µM (not active)
- EC50 [19]: > 112 µM (not active)
- IC50 [1]: > 79 µM (inactive)

SMILES: CCOc1ccc(S(=O)(=O)Nc2ccc(O)c(C(=O)O)c2)cc1
- IC50 [10]: > 100 µM (not active)

SMILES: Nc1ccc(/N=N/c2ccc(/C=C/c3ccc(/N=N/c4ccc(N)c5ccc(S(=O)(=O)O)cc45)cc3S(=O)(=O)O)c(S(=O)(=O)O)c2)c2cc(S(=O)(=O)O)ccc12
- GI50 [4]: > 100 µM (inactive)
- GI50 [5]: > 100 µM (inactive)
- GI50 [6]: > 100 µM (inactive)

SMILES: COc1cccc2c1C(=O)c1c(O)c3c(c(O)c1C2=O)CC(O)(C(C)=O)CC3O (stereo not drawn)
- GI50 [4]: 1.81 µM (inactive)
- GI50 [5]: 2.07 µM (inactive)
- GI50 [6]: 1.09 µM (active)

SMILES: C#CCOCCOCCOCCNc1nc(N2CCN(C(=O)[C@H]([C@@H](C)CC)n3cc([C@@H](N)Cc4ccc(O)cc4)nn3)CC2)nc(N2CCN(C(=O)[C@H](CCCCN)n3cc([C@@H](N)CO)nn3)CC2)n1
- IC50 [20]: > 20 µM (inactive)

SMILES: COc1ccc(S(=O)(=O)N2CC(C(=O)O)Oc3ccccc32)cc1 (stereo not drawn)
- IC50 [3]: > 100 µM (inactive)

SMILES: O=C(Nc1nc(-c2cc(F)ccc2F)cs1)C1=NN(c2ccccc2)C(=O)CC1
- IC50 [1]: > 79 µM (inactive)

SMILES: CCOc1ccc2nc(N(CCCN(C)C)C(=O)c3ccc(C(=O)c4ccccc4)cc3)sc2c1
- IC50 [20]: > 20 µM (inactive)

SMILES: COc1ccc2[nH]cc(CCNC(=O)Nc3ccccc3)c2c1
- IC50 [20]: > 20 µM (inactive)

SMILES: O=C(NCC1CCN(Cc2ccccc2F)CC1)C1CCCN(c2ncnc3c2nc2n3CCCCC2)C1 (stereo not drawn)
- IC50 [20]: > 20 µM (inactive)

SMILES: CC(=O)c1ccc2c(c1)c1c(C)c3c[n+](C)ccc3c(C)c1n2C
- GI50 [4]: 3 µM (inactive)
- GI50 [5]: 1.34 µM (inactive)
- GI50 [6]: 0.634 µM (active)
